Patent US4247559A, “N-substituted maleimides in liquid concentrates” (Abbott Laboratories, priority 1979, dated 1981)

How the values were obtained:
Type in all cases: cell-based
[1] = system: A. niger and P. funiculosum; experiment: antifungal test on agar plates, visual inspection of growth; set-up: unit not given here; conditions: agar plates, 10,000 units each, 30° C. for two weeks
Method: In a related test, the above biocide solutions are added to agar plates at various concentrations and the plates are then inoculated with 1 ml. of a broth containing 10,000 units each of A. niger and P. funiculosum. The plates are then incubated at 30° C. for two weeks, and growth of the fungi is visually inspected to establish the minimum inhibitory concentration (MIC).

[2] = system: Aerobacter aerogenes, Pseudomonoas Sp., Bacillus subtilus and Bacillus megaterium; experiment: antibacterial test in nutrient broth tubes, presence or absence of turbidity; set-up: unit not given here; conditions: 48 hours at 37° C., subcultured and incubated 24 hours longer, challenge 1×10^6 colony-forming units each
Method: (§1) The new compounds are dissolved in DMF at a concentration of 50 mg/ml. and diluted with water to the appropriate concentration to be added to a nutrient broth in test tubes. The challenge mixture contains 1×10^6 colony-forming units each of Aerobacter aerogenes, Pseudomonoas Sp., Bacillus subtilus and Bacillus megaterium. Following inoculation, the tubes are incubated 48 hours at 37° C., subcultured to fresh nutrient broth and incubated 24 hours longer. The results are recorded as presence or absence of turbidity, turbidity indicating growth of the inoculum due to inactivity of the biocide at the concentration used in the broth.

[3] = system: most common industrial fungi and bacteria; experiment: biocidal activity (summary statements on bacteria and fungi); conditions: conclusion from the table, in words
Method: as §1, with “broth. In a related test, the above biocide solutions are added to agar plates at various concentrations and the plates are then inoculated with 1 ml. of a broth containing 10,000 units each of A. niger and P. funiculosum. The plates are then incubated at 30° C. for two weeks, and growth of the fungi is visually inspected to establish the minimum inhibitory concentration (MIC).” for “broth.”

Structure (SMILES)	Antifungal MIC [1]	Antibacterial MIC [2]	biocidal activity [3]
O=C1C=CC(=O)N1c1ccc(S(=O)(=O)CI)cc1 [R= p-CH2 I]	100		
O=C1C=CC(=O)N1c1ccc(S(=O)(=O)C(Cl)Cl)cc1 [R= p-CHCl2, N-[p-(dichloromethylsulfonyl)phenyl]maleimide]	1000	1000	
O=C1C=CC(=O)N1c1ccc(S(=O)(=O)C(Cl)(Cl)Cl)cc1 [R= CCL3, reference compound]	inactive	inactive	ineffective
O=C1C=CC(=O)N1c1ccc(S(=O)(=O)CCl)cc1 [R=p-CH2 Cl, N-[p-(chloromethylsulfonyl)phenyl]maleimide]	1000	1000	
O=C1C=CC(=O)N1c1ccc(S(=O)(=O)C(I)I)cc1 [R= p-CHI2, N-[p-(diiodomethylsulfonyl)phenyl]maleimide]	1000	1000	
